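Values below derive from 48-hour exposures of cells grown in 96-well plates, with endpoints linearly interpolated between the two concentrations bracketing the appropriate inhibition level. The concentration for 50% growth inhibition is given as GI50. TGI is the concentration that stops growth completely.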
How the values were obtained:
Test in all cases: growth of human tumour cells (NCI), 48 h
SNB-75 CNS = test system: SNB-75 CNS
A498 renal = test system: A498 renal
U251 CNS = test system: U251 CNS
KM12 colon = test system: KM12 colon
DU-145 prostate = test system: DU-145 prostate
OVCAR-3 ovarian = test system: OVCAR-3 ovarian
UACC-257 melanoma = test system: UACC-257 melanoma
UO-31 renal = test system: UO-31 renal
ACHN renal = test system: ACHN renal
RXF 393 renal = test system: RXF 393 renal

| Structure (SMILES) | GI50 (SNB-75 CNS) | TGI (SNB-75 CNS) | GI50 (A498 renal) | TGI (A498 renal) | GI50 (U251 CNS) | TGI (U251 CNS) | GI50 (KM12 colon) | TGI (KM12 colon) | GI50 (DU-145 prostate) | TGI (DU-145 prostate) | GI50 (OVCAR-3 ovarian) | TGI (OVCAR-3 ovarian) | GI50 (UACC-257 melanoma) | TGI (UACC-257 melanoma) | GI50 (UO-31 renal) | TGI (UO-31 renal) | GI50 (ACHN renal) | TGI (ACHN renal) | GI50 (RXF 393 renal) | TGI (RXF 393 renal) |
| --- | --- | --- | --- | --- | --- | --- | --- | --- | --- | --- | --- | --- | --- | --- | --- | --- | --- | --- | --- | --- |
| O=C(Cc1ccc(Nc2ccnc(C(F)(F)F)c2)cc1)N/N=C/c1ccccc1O | 4.81 µM | 79.3 µM | 11.2 µM | > 57.9 µM | 1.87 µM | > 54.8 µM | 2.09 µM | 15.5 µM | 3.17 µM | > 58.1 µM | 0.793 µM | 25.8 µM | 3.18 µM | > 28.7 µM | 1.52 µM | > 26 µM | 1.46 µM | > 51.4 µM | 3.95 µM | 38.7 µM |
| CCCOc1ccc(/C=N/Nc2cc(C)nc3ccc(Cl)cc23)cc1 | 1.94 µM | 3.54 µM | 1.72 µM | 3.16 µM | 2.05 µM | 3.55 µM | 1.8 µM | 3.35 µM | 1.9 µM | 3.42 µM | 2.13 µM | 3.7 µM | 1.79 µM | 3.32 µM | 1.56 µM | 2.91 µM | 1.74 µM | 3.12 µM | 1.55 µM | 2.94 µM |
| C/C(=N\O)c1cccc(Nc2cc(-c3ccccc3)nc3c(O)cccc23)c1 | 3.21 µM | 28.4 µM | 3.31 µM | 18.1 µM | 2.35 µM | 15.8 µM | 0.836 µM | 22.9 µM | 2.96 µM | 16.6 µM | 1.1 µM | 14.5 µM | 6.28 µM | 25.4 µM | 11.2 µM | 30.4 µM | 6.57 µM | 22.5 µM | 1.62 µM | 6.42 µM |
| O=C(O)c1ccc(C(=O)O)c(C(=O)O)c1.[NH-]C1CCCCC1[NH-].[Pt+2] | 18 µM | 78.9 µM | 6.28 µM | 45.1 µM | 8.84 µM | 59.1 µM | 14.3 µM | 74.6 µM | 11.1 µM | 84.1 µM | 8.64 µM | 39.9 µM | 15.4 µM | 61.6 µM | 4.22 µM | 26.5 µM | 1.96 µM | 44.1 µM | 9.32 µM | 44.7 µM |
| CC(C)OCc1cc(CN2CCN(c3cccc(Cl)c3)CC2)c(O)c2ncccc12 | 1.19 µM | 14.4 µM | 0.871 µM | 8.25 µM | 0.423 µM | 11.9 µM | 0.574 µM | 13.2 µM | 0.876 µM | 14.7 µM | 0.451 µM | 14.8 µM | 1.56 µM | 9.58 µM | 0.24 µM | 1.38 µM | 0.332 µM | 12.4 µM | 2.87 µM | 20.2 µM |
| Cn1c(=O)c2[nH]c(CCCc3ccc([N+](=O)[O-])cc3)nc2n(C)c1=O | – | > 100 µM | – | > 100 µM | – | > 100 µM | – | > 100 µM | – | > 100 µM | – | > 100 µM | – | > 100 µM | – | > 100 µM | – | > 100 µM | – | > 100 µM |
| Oc1ccc(Cc2ccc(O)c(C3CC(c4ccc(Cl)cc4)=NN3)c2)cc1C1CC(c2ccc(Cl)cc2)=NN1 (stereo unspecified) | 3.7 µM | > 82.3 µM | 0.59 µM | > 34.3 µM | 2.06 µM | 33.6 µM | 3.34 µM | > 67.8 µM | 3.22 µM | > 100 µM | 2.71 µM | 16.5 µM | 3.1 µM | 19.2 µM | 3.07 µM | > 100 µM | 3.1 µM | > 31.8 µM | 3.48 µM | > 38.8 µM |
| O=c1[nH]c(F)nc2c1ncn2C1OC(CO)C(O)C1O (stereo unspecified) | > 100 µM | > 100 µM | > 100 µM | > 100 µM | > 100 µM | > 100 µM | > 100 µM | > 100 µM | > 100 µM | > 100 µM | > 100 µM | > 100 µM | > 100 µM | > 100 µM | > 100 µM | > 100 µM | > 100 µM | > 100 µM | > 100 µM | > 100 µM |
| CCOC(=O)[C@@H](C)C[C@H](Cc1ccccc1)NC(=O)c1csc([C@@H](C[C@H](C(C)C)N(C)C(=O)[C@@H](NC(=O)[C@H]2C[C@H](O)CCN2C)C(C)C)OC(C)=O)n1 | 0.00384 µM | > 16.7 µM | 0.00721 µM | 0.0879 µM | 0.00614 µM | > 16.7 µM | 0.0023 µM | – | 0.00421 µM | – | < 0.00167 µM | – | > 16.7 µM | > 16.7 µM | 0.647 µM | > 16.7 µM | 0.106 µM | > 16.7 µM | 0.00955 µM | – |
| NC(=N\N=C/c1ccc(Cl)cc1Cl)/C(N)=N\N=C/c1ccc(Cl)cc1Cl | 1.65 µM | 13.4 µM | 2.21 µM | 8.37 µM | 1.02 µM | 19 µM | > 100 µM | > 100 µM | > 100 µM | > 100 µM | 12.3 µM | > 73.8 µM | > 100 µM | > 100 µM | 13.3 µM | > 83.6 µM | 0.576 µM | 15.6 µM | 12.8 µM | 63.9 µM |
| O=Cc1ccc(-c2ccc(-c3ccc(C=O)o3)[se]2)o1 | 29.6 µM | > 100 µM | 0.302 µM | 10.5 µM | 44.8 µM | > 100 µM | > 100 µM | > 100 µM | > 100 µM | > 100 µM | > 100 µM | > 100 µM | > 100 µM | > 100 µM | > 100 µM | > 100 µM | 45.5 µM | > 100 µM | 55.8 µM | > 100 µM |
| FC(F)(F)c1cc(-c2ncn(/C=C\c3nnco3)n2)cc(C(F)(F)F)c1 | 0.106 µM | 3.65 µM | < 0.0128 µM | 0.0639 µM | 0.0402 µM | 15.6 µM | 0.346 µM | > 32.7 µM | 0.315 µM | 22 µM | 0.06 µM | 1.42 µM | 0.0673 µM | > 66.4 µM | 0.151 µM | > 100 µM | 0.163 µM | > 96.2 µM | 0.0216 µM | 0.11 µM |
